Test results: ChEMBL document CHEMBL4130433, “Acridone-pyrimidine hybrids- design, synthesis, cytotoxicity studies in resistant and sensitive cancer cells and molecular docking studies” (Eur J Med Chem, 2017)

Key:
[1] = test system: Rattus norvegicus; assay: Toxicity in overnight fasted albino Wistar rat assessed as body weight at 300 mg/kg, po administered as single dose followed by fasting for 3 hrs measured on day 8 post dose (reference value: 177 +/- 8 g); assay type: organism-based; conditions: in vivo
[2] = test system: Rattus norvegicus; assay: Toxicity in overnight fasted albino Wistar rat assessed as body weight at 300 mg/kg, po administered as single dose followed by fasting for 3 hrs measured on day 14 post dose (reference value: 191 +/- 18 g); assay type: organism-based; conditions: in vivo
[3] = test system: Rattus norvegicus; assay: Toxicity in overnight fasted albino Wistar rat assessed as body weight at 5000 mg/kg, po administered as single dose followed by fasting for 3 hrs measured on day 3 post dose (reference value: 166 +/- 10 g); assay type: organism-based; conditions: in vivo
[4] = test system: Rattus norvegicus; assay: Toxicity in overnight fasted albino Wistar rat assessed as body weight at 2000 mg/kg, po administered as single dose followed by fasting for 3 hrs measured on day 6 post dose (reference value: 173 +/- 12 g); assay type: organism-based; conditions: in vivo
[5] = test system: Rattus norvegicus; assay: Toxicity in overnight fasted albino Wistar rat assessed as body weight at 2000 mg/kg, po administered as single dose followed by fasting for 3 hrs measured on day 12 post dose (reference value: 186 +/- 13 g); assay type: organism-based; conditions: in vivo
[6] = test system: Rattus norvegicus; assay: Toxicity in overnight fasted albino Wistar rat assessed as body weight at 2000 mg/kg, po administered as single dose followed by fasting for 3 hrs measured on day 11 post dose (reference value: 185 +/- 8 g); assay type: organism-based; conditions: in vivo
[7] = test system: Rattus norvegicus; assay: Toxicity in overnight fasted albino Wistar rat assessed as body weight at 5000 mg/kg, po administered as single dose followed by fasting for 3 hrs measured on day 5 post dose (reference value: 172 +/- 14 g); assay type: organism-based; conditions: in vivo
[8] = test system: Rattus norvegicus; assay: Toxicity in overnight fasted albino Wistar rat assessed as body weight at 300 mg/kg, po administered as single dose followed by fasting for 3 hrs measured on day 10 post dose (reference value: 182 +/- 15 g); assay type: organism-based; conditions: in vivo
[9] = test system: Rattus norvegicus; assay: Toxicity in overnight fasted albino Wistar rat assessed as body weight at 5000 mg/kg, po administered as single dose followed by fasting for 3 hrs measured on day 6 post dose (reference value: 173 +/- 12 g); assay type: organism-based; conditions: in vivo
[10] = test system: Rattus norvegicus; assay: Toxicity in overnight fasted albino Wistar rat assessed as body weight at 5000 mg/kg, po administered as single dose followed by fasting for 3 hrs measured on day 14 post dose (reference value: 191 +/- 18 g); assay type: organism-based; conditions: in vivo
[11] = test system: A549; assay: cells; conditions: Homo sapiens, A549, 72 h
Description: Antiproliferative activity against human A549 cells after 72 hrs by MTT assay

[12] = test system: Rattus norvegicus; assay: Toxicity in overnight fasted albino Wistar rat assessed as body weight at 5000 mg/kg, po administered as single dose followed by fasting for 3 hrs measured on day 12 post dose (reference value: 186 +/- 13 g); assay type: organism-based; conditions: in vivo
[13] = test system: Rattus norvegicus; assay: Toxicity in overnight fasted albino Wistar rat assessed as body weight at 300 mg/kg, po administered as single dose followed by fasting for 3 hrs measured on day 3 post dose (reference value: 166 +/- 10 g); assay type: organism-based; conditions: in vivo
[14] = test system: Rattus norvegicus; assay: Toxicity in overnight fasted albino Wistar rat assessed as body weight at 2000 mg/kg, po administered as single dose followed by fasting for 3 hrs measured on day 14 post dose (reference value: 191 +/- 18 g); assay type: organism-based; conditions: in vivo
[15] = Cytotoxicity against African green monkey Vero cells after 72 hrs by MTT assay; assay type: cell-based; conditions: chlorocebus sabaeus
[16] = test system: Rattus norvegicus; assay: Toxicity in overnight fasted albino Wistar rat assessed as body weight at 300 mg/kg, po administered as single dose followed by fasting for 3 hrs measured on day 1 post dose (reference value: 162 +/- 8 g); assay type: organism-based; conditions: in vivo
[17] = test system: Rattus norvegicus; assay: Toxicity in overnight fasted albino Wistar rat assessed as body weight at 300 mg/kg, po administered as single dose followed by fasting for 3 hrs measured on day 11 post dose (reference value: 185 +/- 8 g); assay type: organism-based; conditions: in vivo
[18] = test system: SW1573; assay: Antiproliferative activity against resistant human SW1573 2R 120 cells harboring MRP1 after 72 hrs by MTT assay; assay type: functional, cell-based; conditions: SW1573, 72 h
[19] = test system: Rattus norvegicus; assay: Toxicity in overnight fasted albino Wistar rat assessed as body weight at 5000 mg/kg, po administered as single dose followed by fasting for 3 hrs measured on day 7 post dose (reference value: 175 +/- 10 g); assay type: organism-based; conditions: in vivo
[20] = test system: Rattus norvegicus; assay: Toxicity in overnight fasted albino Wistar rat assessed as body weight at 300 mg/kg, po administered as single dose followed by fasting for 3 hrs measured on day 4 post dose (reference value: 169 +/- 5 g); assay type: organism-based; conditions: in vivo
[21] = test system: Rattus norvegicus; assay: Toxicity in overnight fasted albino Wistar rat assessed as body weight at 2000 mg/kg, po administered as single dose followed by fasting for 3 hrs measured on day 4 post dose (reference value: 169 +/- 5 g); assay type: organism-based; conditions: in vivo
[22] = test system: Rattus norvegicus; assay: Toxicity in overnight fasted albino Wistar rat assessed as body weight at 2000 mg/kg, po administered as single dose followed by fasting for 3 hrs measured on day 1 post dose (reference value: 162 +/- 8 g); assay type: organism-based; conditions: in vivo

SMILES: COC(=O)c1c(C)nc(NNC(=O)c2cccc3c(=O)c4ccccc4[nH]c23)nc1-c1ccc(OC)c(OC)c1
- Activity [1]: 192 g
- Activity [2]: 208 g
- Activity [3]: 192 g
- Activity [4]: 194 g
- Activity [5]: 206 g
- Activity [6]: 205 g
- Activity [7]: 198 g
- Activity [8]: 193 g
- Activity [9]: 202 g
- Activity [10]: 228 g
- IC50 [11]: 29.1 µM
- Activity [12]: 221 g
- Activity [13]: 185 g
- Activity [14]: 213 g
- CC50 at 72 h [15]: 85.7 µM
- Activity [16]: 182 g
- Activity [17]: 196 g
- IC50 [18]: > 100 µM
- Activity [19]: 206 g
- Activity [20]: 186 g
- Activity [21]: 187 g
- Activity [22]: 183 g
